In patent US6737383B1, “Herbicidal oxadiazolidines” (priority 1999, dated 2004):

Legend:
cocklebur = assay: Test B pre/postemergence cocklebur; format: in vivo, Xanthium strumarium
Outline: (§1)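 Test chemicals in a non-phytotoxic solvent mixture with surfactant were sprayed preemergence onto planted seeds and postemergence onto plants 2 to 18 cm tall (1- to 4-leaf stage). After twelve to sixteen days in a greenhouse, injury was visually rated against untreated controls from 0 (no effect) to 10 (complete control).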

smallflower flatsedge = assay: Test B flood test smallflower flatsedge; format: in vivo, Cyperus difformis
Outline: (§2)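 Read-out is a visual response score from 0 (no effect) to 10 (complete control), assigned by comparison with untreated controls. Treatment was applied at the 2-leaf stage, and plants stayed in the greenhouse for twelve to sixteen days before scoring.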

blackgrass = assay: Test B pre/postemergence blackgrass; format: in vivo, Alopecurus myosuroides
Outline: as §1

soybean = assay: Test B pre/postemergence soybean; format: in vivo, Glycine max
Outline: as §1

wild oat = assay: Test B pre/postemergence wild oat; format: in vivo, Avena fatua
Outline: as §1

rape = assay: Test B pre/postemergence rape; format: in vivo, Brassica napus
Outline: as §1

surinam grass = assay: Test B pre/postemergence surinam grass; format: in vivo, Brachiaria decumbens
Outline: as §1

rice = assay: Test B flood test rice; format: in vivo, Oryza sativa
Outline: as §2

sugar beet = assay: Test B pre/postemergence sugar beet; format: in vivo, Beta vulgaris
Outline: as §1

bamyardgrass = assay: Test B flood test barnyardgrass; format: in vivo, Echinochloa crus-galli
Outline: as §2

corn = assay: Test B pre/postemergence corn; format: in vivo, Zea mays
Outline: as §1

velvetleaf = assay: Test B pre/postemergence velvetleaf; format: in vivo, Abutilon theophrasti
Outline: as §1

purple nutsedge = assay: Test B pre/postemergence purple nutsedge; format: in vivo, Cyperus rotundus
Outline: as §1

morningglory = assay: Test B pre/postemergence morningglory; format: in vivo, Ipomoea hederacea
Outline: as §1

bedstraw = assay: Test B pre/postemergence bedstraw; format: in vivo, Galium aparine
Outline: as §1

pigweed = assay: Test B pre/postemergence pigweed; format: in vivo, Amaranthus retroflexus
Outline: as §1

[1] = Preemergence, Rate 62 g/ha, scale of 0 to 10 where 0 is no effect and 10 is complete control
[2] = Preemergence, Rate 250 g/ha, scale of 0 to 10 where 0 is no effect and 10 is complete control
[3] = Preemergence, Rate 500 g/ha, scale of 0 to 10 where 0 is no effect and 10 is complete control
[4] = Rate 62 g/ha, Postemergence, scale of 0 to 10 where 0 is no effect and 10 is complete control
[5] = Rate 125 g/ha, Postemergence, scale 0 to 10
[6] = Rate 125 g/ha, Preemergence, scale of 0 to 10 where 0 is no effect and 10 is complete control
[7] = Rate 500 g/ha, Postemergence, scale 0 to 10
[8] = Rate 62 g/ha, headed Pre-emergence (flood test species), scale 0 to 10 (0 no effect, 10 complete control)
[9] = Rate 125 g/ha, Pre-emergence, flood test species, scale 0 to 10 where 0 is no effect and 10 is complete control
[10] = Rate 250 g/ha, Pre-emergence, flood-test species, scale 0 to 10, 0 is no effect, 10 is complete control
[11] = Rate 500 g/ha, Pre-emergence, flood test species, scale 0 to 10 (0 no effect, 10 complete control)

Compound: CC(C)N(C(=O)n1oc(=O)n(CCC(F)=C(F)F)c1=O)c1ccc(F)cc1 [Compound 218]
- Cocklebur plant response rating (cocklebur; [1]): 0
- Cocklebur plant response rating (cocklebur; [2]): 0
- Plant response rating, Cocklebur (cocklebur; [3]): 0
- Cocklebur plant response rating (cocklebur; [4]): 0
- Cocklebur plant response rating (cocklebur; [5]): 0
- Cocklebur plant response rating (cocklebur; [6]): 0
- Plant response rating (0 to 10; 0 is no effect, 10 is complete control), Cocklebur (cocklebur; Rate 250 g/ha, Postemergence): 3
- Cocklebur plant response rating (cocklebur; [7]): 4
- S. Flatsedge plant response rating (smallflower flatsedge; [8]): 0
- S. Flatsedge plant response rating (smallflower flatsedge; [9]): 0
- S. Flatsedge plant response rating (smallflower flatsedge; [10]): 0
- S. Flatsedge plant response rating (smallflower flatsedge; [11]): 0
- Blackgrass plant response rating (blackgrass; [1]): 8
- Blackgrass plant response rating (blackgrass; [2]): 9
- Plant response rating, Blackgrass (blackgrass; [3]): 10
- Blackgrass plant response rating (blackgrass; [4]): 5
- Blackgrass plant response rating (blackgrass; [5]): 5
- Blackgrass plant response rating (blackgrass; [6]): 9
- Plant response rating (0 to 10; 0 is no effect, 10 is complete control), Blackgrass (blackgrass; Rate 250 g/ha, Postemergence): 7
- Blackgrass plant response rating (blackgrass; [7]): 8
- Soybean plant response rating (soybean; [1]): 0
- Soybean plant response rating (soybean; [2]): 2
- Plant response rating, Soybean (soybean; [3]): 6
- Soybean plant response rating (soybean; [4]): 3
- Soybean plant response rating (soybean; [5]): 4
- Soybean plant response rating (soybean; [6]): 2
- Plant response rating (0 to 10; 0 is no effect, 10 is complete control), Soybean (soybean; Rate 250 g/ha, Postemergence): 6
- Soybean plant response rating (soybean; [7]): 7
- Wild oats plant response rating (wild oat; [1]): 5
- Wild oats plant response rating (wild oat; [2]): 7
- Plant response rating, Wild oats (wild oat; [3]): 9
- Wild oats plant response rating (wild oat; [4]): 0
- Wild oats plant response rating (wild oat; [5]): 0
- Wild oats plant response rating (wild oat; [6]): 6
- Plant response rating (0 to 10; 0 is no effect, 10 is complete control), Wild oats (wild oat; Rate 250 g/ha, Postemergence): 1
- Rape plant response rating (rape; [1]): 0
- Rape plant response rating (rape; [2]): 0
- Plant response rating, Rape (rape; [3]): 2
- Rape plant response rating (rape; [4]): 0
- Rape plant response rating (rape; [5]): 1
- Rape plant response rating (rape; [6]): 0
- Plant response rating (0 to 10; 0 is no effect, 10 is complete control), Rape (rape; Rate 250 g/ha, Postemergence): 6
- Rape plant response rating (rape; [7]): 7
- B. signalgrass plant response rating (surinam grass; [1]): 0
- B. signalgrass plant response rating (surinam grass; Preemergence, Rate 250 g/ha, scale 0 to 10, 0 is no effect, 10 is complete control): 6
- Plant response rating, B. signalgrass (surinam grass; [3]): 7
- B. signalgrass plant response rating (surinam grass; [4]): 0
- B. signalgrass plant response rating (surinam grass; Rate 125 g/ha, Postemergence, scale 0 (no effect) to 10 (complete control)): 0
- B. signalgrass plant response rating (surinam grass; [6]): 4
- Plant response rating (0 to 10; 0 is no effect, 10 is complete control), B. signalgrass (surinam grass; Rate 250 g/ha, Postemergence): 3
- B. signalgrass plant response rating (surinam grass; Rate 500 g/ha, Postemergence, scale 0 to 10, 0 no effect, 10 complete control): 7
- Rice plant response rating (rice; [8]): 0
- Rice plant response rating (rice; [9]): 0
- Rice plant response rating (rice; [10]): 0
- Rice plant response rating (rice; [11]): 0
- Sugarbeets plant response rating (sugar beet; [1]): 0
- Sugarbeets plant response rating (sugar beet; [2]): 6
- Plant response rating, Sugarbeets (sugar beet; [3]): 7
- Sugarbeets plant response rating (sugar beet; [4]): 2
- Sugarbeets plant response rating (sugar beet; [5]): 2
- Sugarbeets plant response rating (sugar beet; [6]): 1
- Plant response rating (0 to 10; 0 is no effect, 10 is complete control), Sugarbeets (sugar beet; Rate 250 g/ha, Postemergence): 2
- Sugarbeets plant response rating (sugar beet; [7]): 4
- Barnyardgrass plant response rating (bamyardgrass; [8]): 0
- Barnyardgrass plant response rating (bamyardgrass; [9]): 0
- Barnyardgrass plant response rating (bamyardgrass; [10]): 0
- Barnyardgrass plant response rating (bamyardgrass; [11]): 0
- Corn plant response rating (corn; [1]): 0
- Corn plant response rating (corn; [2]): 0
- Plant response rating, Corn (corn; [3]): 6
- Corn plant response rating (corn; [4]): 0
- Corn plant response rating (corn; [5]): 0
- Corn plant response rating (corn; [6]): 0
- Plant response rating (0 to 10; 0 is no effect, 10 is complete control), Corn (corn; Rate 250 g/ha, Postemergence): 0
- Corn plant response rating (corn; [7]): 0
- Velvetleaf plant response rating (velvetleaf; [1]): 0
- Velvetleaf plant response rating (velvetleaf; [2]): 0
- Plant response rating, Velvetleaf (velvetleaf; [3]): 2
- Velvetleaf plant response rating (velvetleaf; [4]): 0
- Velvetleaf plant response rating (velvetleaf; [5]): 0
- Velvetleaf plant response rating (velvetleaf; [6]): 0
- Plant response rating (0 to 10; 0 is no effect, 10 is complete control), Velvetleaf (velvetleaf; Rate 250 g/ha, Postemergence): 2
- Plant response rating, Nutsedge (purple nutsedge; [3]): 0
- Nutsedge plant response rating (purple nutsedge; [4]): 0
- Nutsedge plant response rating (purple nutsedge; [5]): 0
- Plant response rating (0 to 10; 0 is no effect, 10 is complete control), Nutsedge (purple nutsedge; Rate 250 g/ha, Postemergence): 0
- Nutsedge plant response rating (purple nutsedge; [7]): 0
- Morningglory plant response rating (morningglory; [1]): 0
- Morningglory plant response rating (morningglory; [2]): 0
- Plant response rating, Morningglory (morningglory; [3]): 0
- Morningglory plant response rating (morningglory; [4]): 3
- Morningglory plant response rating (morningglory; [5]): 4
- Morningglory plant response rating (morningglory; [6]): 0
- Plant response rating (0 to 10; 0 is no effect, 10 is complete control), Morningglory (morningglory; Rate 250 g/ha, Postemergence): 8
- Morningglory plant response rating (morningglory; [7]): 9
- Bedstraw plant response rating (bedstraw; [1]): 0
- Bedstraw plant response rating (bedstraw; [2]): 0
- Plant response rating, Bedstraw (bedstraw; [3]): 3
- Bedstraw plant response rating (bedstraw; [4]): 6
- Bedstraw plant response rating (bedstraw; [5]): 8
- Bedstraw plant response rating (bedstraw; [6]): 0
- Bedstraw plant response rating (bedstraw; [7]): 8
- Redroot pigweed plant response rating (pigweed; [1]): 6
- Redroot pigweed plant response rating (pigweed; [2]): 8
- Plant response rating, Redroot pigweed (pigweed; [3]): 10
- Redroot pigweed plant response rating (pigweed; [4]): 0
- Redroot pigweed plant response rating (pigweed; [5]): 1
- Redroot pigweed plant response rating (pigweed; [6]): 1
- Plant response rating (0 to 10; 0 is no effect, 10 is complete control), Redroot pigweed (pigweed; Rate 250 g/ha, Postemergence): 3
- Redroot pigweed plant response rating (pigweed; [7]): 7
